What was measured:
[1] = tested on: HIV-1; assay: HIV viral load in patients sensitized and rechallenged topically; type: in vivo, human
From the text: As examples of the HIV viral load reducing effects of the subject compositions, two patients were sensitized with 0.400% diphenylcyclopropenone in a vehicle consisting of equal parts of polyoxysorbitan 20 monooleate and isopropyl myristate and subsequently rechallenged with 0.100% diphenylcyclopropenone in the same vehicle two weeks, four weeks and eight weeks later.

[2] = cited from earlier work
[3] = rodents; cited from earlier work

Structure (SMILES): O=c1c(-c2ccccc2)c1-c1ccccc1 [diphenylcyclopropenone]
- HIV-1 RNA Copies/1.0 ml Plasma ([1]; Patient #1, Baseline): 400 Copies Copies/1.0 ml Plasma
- HIV-1 RNA Copies/1.0 ml Plasma ([1]; Patient #1, Eight Weeks, sensitized 0.400%, rechallenged 0.100% topically): 79 Copies/1.0 ml Plasma
- HIV-1 RNA Copies/1.0 ml Plasma ([1]; Patient #1, Four Weeks, sensitized 0.400%, rechallenged 0.100% topically): 60 Copies/1.0 ml Plasma
- HIV-1 RNA Copies/1.0 ml Plasma ([1]; Patient #1, Two Weeks, sensitized 0.400%, rechallenged 0.100% topically): 118 Copies/1.0 ml Plasma
- HIV-1 RNA Copies/1.0 ml Plasma ([1]; Patient #2, Baseline): 440 Copies/1.0 ml Plasma
- HIV-1 RNA Copies/1.0 ml Plasma ([1]; Patient #2, Eight Weeks, sensitized 0.400%, rechallenged 0.100% topically): 351 Copies/1.0 ml Plasma

Structure (SMILES): CC(C)=O [Acetone]
- toxic effects with repeated human use [2]: epidermal erythema, dryness, headache, bronchial irritation, CNS effects including fatigue and excitement
- LD/50 [3]: 10.7 mg/kg
